We go through 89 compounds from a melting point compilation (Tetko et al.; mined from patent text by program, amines drawn as free bases though some values may be those of a salt).

Compound `c1ccc(OCCCCN2CCNCC2)cc1` registered a melting point of 35 to 36 °C.
With `NC(=O)Cc1ccccc1Cn1ccc(OCc2ccc(F)cc2F)c(Br)c1=O` the figure was 178 to 183 °C; with `CCOC(=O)C=C(C)Nc1c[nH]nc1-c1ccc(Cl)cc1`, 145 to 146 °C.
For `N=C(N)c1ccc(NC(C(=O)O)c2ccccc2OCC(=O)O)cc1` (racemic), the melting point is 223 °C.
In turn, `Cc1cn(-c2ccc3c(c2)c2ccccc2n3-c2ccccc2)c(-c2nc(C)cn2-c2ccc3c(c2)c2ccccc2n3-c2ccccc2)n1` had a melting point of 245 to 253 °C.
Consider `CCCN(CCC)C(=O)c1cc2ccccc2c(-c2ccccc2Cl)n1`, for which the melting point is 101 °C.
Turning to `O=P(O)(O)C(NCc1ccccc1)c1ccccc1` (centres undefined), the melting point was 233 to 236 °C.
For `CCCCNc1cc(-c2ccccc2)nc2onc(C)c12` the value was 126 to 127 °C; for `CN(CCCS(=O)CCCC(F)(F)C(F)(F)F)CCOc1ccc(C2=C(c3ccccc3)CCCc3ccccc32)cc1` (centres undefined), 74 to 77 °C.
`COC(=O)c1ccccc1S(=O)(=O)Nn1c(C)nn(-c2nc(OC)cc(OC)n2)c1=O`: the melting point was determined as 174 °C.
`O=C(Nc1ccncc1)c1n[nH]c2ccc(-c3cncc4ccccc34)cc12`: the melting point is above 250 °C.
`COc1ccc2c(c1)N(C(C)=O)c1cccc(SC)c1S2` came in with a melting point of 106 to 108 °C.
The compound `O=C(NC1CCC(CCN2CCN(c3nccc4c3OCC4)CC2)CC1)C1CCCOC1` (racemic) yielded a melting point of 203 °C.
Compound `CCC(=O)n1nc(-c2ccc(Cl)cc2)nc1C` yielded a melting point of 108 to 109 °C.
Compound `C[C@H](NC(=O)C1(C)Oc2ccc([N+](=O)[O-])cc2NC1=O)C(=O)N[C@H](CCC(=O)O)C(N)=O` (some centres undefined) returned a melting point of 142 to 146 °C.
Turning to `Nc1c2c(nc3ccccc13)CCS2`, the melting point was in the range of 210 to 212 °C.
For `CC(C)NC(=O)N1CCC(Cc2ccc(NC3=NCCN3)cc2)CC1` the value was 191 to 192 °C; for `C=Cc1cnc2c(NC(=O)c3c(Cl)cccc3Cl)cccc2c1CC(=O)NCc1ccccn1`, 194 to 195 °C.
For the compound `COc1ccc(-c2cc(F)c(F)cc2-c2ccc(S(C)(=O)=O)cc2)cc1Cl`, the melting point came to 148 °C.
For the compound `CCCCCCCC(=O)c1[nH]c(=O)[nH]c1C`, the melting point lay within 220 to 221 °C.
In turn, `C=CCNC(=O)n1nc(NC)n(C)c1=O` had a melting point of 136 to 137 °C.
For `C[C@H](C(O)C(c1ccc(F)cc1F)n1cncn1)S(=O)(=O)[C@@H]1CNCCN1c1ccccc1` (some centres undefined) the value was 135 to 137 °C.
For `COc1ccc(S(=O)(=O)N2C(=O)C(c3ccccc3OC)(N3Cc4ccccc4C[C@H]3C(=O)N(C)C)c3cc(Cl)c(C)cc32)c(OC)c1` (some centres undefined) the value was 160 °C.
Consider `Brc1cnc(-c2ccccc2)c2ccccc12`, for which the melting point was 123 to 125 °C.
Take `Fc1ccc(-c2nc(-c3ccccn3)cs2)cc1`: the melting point was 140 to 144 °C.
With `O=C(N1CCN(c2ncccn2)CC1)N1CC(Oc2cccc(C(F)(F)F)c2)C1` the figure was 127 to 128 °C; with `COc1ccc(C(=O)OC2CCCC2)nc1Cl`, 90 to 92 °C.
Turning to `CC(=O)OCC(=O)C1(OC(C)=O)C(C)CC2C3CC(C)C4=CC(=O)C=CC4(C)C3C(O)CC21C` (centres undefined), the melting point lay in the range of 124 to 126 °C.
For the compound `CCOC(=O)c1nc2n(c(=O)c1O)CCC=C2c1ccccc1`, the melting point was found to be 151 °C.
`C=C(N=[N+]=[N-])c1cn(COCCO)c(=O)[nH]c1=O` displayed a melting point of 141 to 142 °C.
With `Nc1ncc(-c2cccc3ccc(Br)cc23)o1` the figure was 189 to 190 °C.
Turning to `S=C=NC1(Br)C=Cc2nccnc2C1` (centres undefined), the melting point was in the range of 157 to 158 °C.
Consider `N#Cc1cccc(-c2ccc3c(c2)NC(=O)CO3)c1`, for which the melting point was 242 °C.
The compound `Cc1ccc(CCC(=O)O)cc1C` returned a melting point of 82 °C.
Turning to `CCCNC(=O)[C@H](Cc1ccccc1)NC(=O)CNC(=O)OC(C)(C)C`, the melting point lay in the range of 166 to 168 °C.
Consider `Cc1nc2c(c3c1[nH]c1ccccc13)CCC(C)(C)C2`, for which the melting point is 241 to 243 °C.
For the compound `CC(C)Oc1ccc(C(=O)c2[nH]c3cc(Cl)ccc3c2CC(=O)O)cc1`, the melting point lay within 216 to 218 °C.
Turning to `CSCn1c(Br)c(Br)c(C#N)c1-c1ccc(C(F)(F)F)cc1`, the melting point lay in the range of 140 to 145 °C.
Compound `COc1ccccc1N1CCN(CCCn2c(=O)[nH]cc(C)c2=O)CC1` had a melting point of 168 to 170 °C.
Take `O=C(Nc1nnc(-c2ccc(Cl)cc2)s1)c1c(Cl)cccc1Cl`: the melting point was above 260 °C.
In turn, `N#CC1=C(Nc2cc(F)cc(F)c2)CCC1` displayed a melting point of 113 to 115 °C.
As to `COc1ccc(F)cc1C(C)(C)c1cc(Cl)ccc1O`, the melting point was 97 °C.
For `Nc1ccccc1NC(=O)c1ccc(CNc2c(NCc3cccnc3)c(=O)c2=O)cc1` the value was 230 °C; for `CCCC(=O)Cc1ccc(C(=O)Nc2ccc3cc(CN4CCCC4)cnc3c2C)cc1`, 139 to 140 °C.
In the case of `CON=C(C)c1ccc(-c2ccccc2NC(=O)c2c(C)nn(C)c2F)cc1`, the melting point came out at 153 °C.
`CC1CCN(c2c(C#N)c3c(c4c2CCc2ccccc2-4)-c2ccccc2C3)CC1` displayed a melting point of 152 to 154 °C.
As for `CC(C)(C)c1cc(C(=O)Nc2cccc(OCc3cccnc3)c2)ccc1O`, the melting point lay within 104 to 107 °C.
For `CNC(=O)NCCn1c(-c2ccc(CN3CCOCC3)cc2C)csc1=Nc1ccc(F)c(C)c1` the value was 130 to 135 °C; for `COC(=O)N=C(N)SC`, 72 to 77 °C; for `O=P(O)(O)C(F)(F)c1ccc(CN(Cc2ccc(C(F)(F)P(=O)(O)O)cc2)S(=O)(=O)CCc2ccccc2)cc1`, 181 to 183 °C.
In turn, `CC(C)(C)OC(=O)NCCCCNOC(=O)c1ccccc1` came in with a melting point of 113 to 114 °C.
`O=C(C=Cc1cccc(Oc2ccccc2)c1)NCCCCCC(=O)NO` displayed a melting point of 113 to 115 °C.
`CC(C)(C)OC(=O)NC(Cc1ccccc1F)C(=O)N1CCSC1` (centres undefined) displayed a melting point of 133 to 134 °C.
For `Cc1nc(N)c2nc(CO)n(NCc3ccccc3)c2c1C` the value was above 250 °C; for `c1csc(-c2ccc(C34CCN(CC3)C4)cn2)n1`, 127 to 129 °C; for `COC(=O)C1Oc2ccc(C)cc2Cc2cc(C)ccc2O1`, 158 to 160 °C.
In the case of `O=C(c1ccc(Br)cc1)N(C1CCCCC1)C1CCCC1`, the melting point was 110 to 112 °C.
In turn, `O=C1NC(Cc2ccc(OCc3ccccc3)cn2)C(=O)NC1Cc1ccccc1` (centres undefined) came in with a melting point of 215 to 218 °C.
With `COC(=O)c1cccc2c1ccn2C` the figure was 194 to 195 °C; with `Cc1cccc(C)c1N1CC(=O)N(c2c(C)cccc2C)CC1=O`, 233 to 235 °C.
On to `O=C(Nc1nccs1)c1c(C(F)(F)F)nc2c(C(F)(F)F)cccc2c1O`, for which the melting point worked out at 258 °C.
As to `Cc1cc(-c2ccc(C(F)(F)F)cc2)cn2c(-c3nc(-c4ccc(S(N)(=O)=O)s4)no3)cnc12`, the melting point came out at 285 °C.
Take `CC(C)Sc1sc(-c2nnn(C)n2)c2c1C(=O)CC(C)(C)C2`: the melting point was in the range of 180 to 183 °C.
Turning to `CCOC(=O)[C@@H](Cc1ccccc1)C[C@H](Cc1ccccc1)C(=O)NCCC(=O)O` (relative stereo), the melting point lay in the range of 84 to 86 °C.
For `COC(=O)c1ccc(-c2nc(-c3ccc4c(c3)C(C)(C)CCC4(C)C)co2)cc1` the value was 207 to 208 °C; for `CCC#CCOc1cc(/C=C/C(=O)Nc2ccccc2C(=O)O)ccc1OC`, 124 to 125 °C.
Turning to `O=C(NCCOc1ccccn1)C1Cc2ccccc2N1S(=O)(=O)c1ccc(-c2cccc(C(F)(F)F)c2)cc1` (centres undefined), the melting point came to 85 °C.
In turn, `CC(N)(C(=O)O)c1ccc(NC=C2C(=O)NC(=O)c3ccc(Br)cc32)cc1` (centres undefined) gave a melting point of 250 to 253 °C.
On to `COc1ccc(CNS(=O)(=O)Cc2ccc3[nH]cc(CCN(C)C)c3c2)cc1`, for which the melting point was 200 to 201 °C.
`O=S(=O)(CC1CCN(CCC2CCOc3ccccc32)CC1)Nc1ccccc1` (centres undefined) gave a melting point of 186 °C.
`CN1CCN(Cc2c(Cl)ccc(C(=O)O)c2Cl)C1=O` showed a melting point of 221 °C.
Compound `CC1(C)CC(=O)c2cc(OCC(F)(F)F)c(OCC(F)(F)F)cc2O1` displayed a melting point of 92 to 93 °C.
With `CCCc1c(OCCCOc2ccc3c(c2CCC)OC(C(=O)OC)CC3)ccc(C(C)=O)c1O` (centres undefined) the figure was 70 to 72 °C; with `CN(CCO)c1cc(Cl)nc(SCC(=O)O)n1`, 188 to 190 °C; with `CCCCCCc1ccc(CCCCC(N)(CO)CO)cc1`, 99 to 102 °C.
Consider `Clc1ccc(C2c3ccc(Cl)cc3-c3ncncc32)cc1` (centres undefined), for which the melting point was in the range of 158 to 163 °C.
Consider `COc1cccc2c(Oc3ccccc3)cccc12`, for which the melting point was in the range of 65 to 66 °C.
Take `NCC(=O)N1c2ccccc2N(Cc2ccccc2)C(=O)[C@H]2CCC[C@H]21` (relative stereo): the melting point is 163 to 165 °C.
`Cc1cc(C)c2c(c1C)OCC2c1ccc(C(C)C)cc1` (centres undefined) displayed a melting point of 48 to 49 °C.
`O=c1ccn([C@@H]2C=CCC[C@@H]2O)c(=O)[nH]1` (racemic) registered a melting point of 203 °C.
`Cc1nnc2ccc(-c3cccs3)nn12` gave a melting point of 152 to 153 °C.
Regarding `Cc1cnc(Cl)c2c3cc(O)ccc3n(C)c12`, the melting point was above 260 °C.
For `COc1cc(O)cc2cc(-c3ccc(O)cc3)oc12` the value was 167 to 168 °C; for `C#CC12CCCN(CC1)C2` (centres undefined), 41 to 42 °C.
For `COC(=O)CCCc1cc2nc(Cl)ccc2n1S(=O)(=O)c1ccc(-c2ccccn2)cc1` the value was 123 to 124 °C; for `CNC(=O)C1(c2ccc([N+](=O)[O-])cc2)C2C=CC(C2)C1C(N)=O` (centres undefined), 164 to 166 °C; for `CC(NC(CCc1ccccc1)C(=O)O)C(=O)OC(Cc1ccccc1)C(=O)O` (centres undefined), 199 to 200 °C.
As for `O=C(O)c1ccc(S(=O)(=O)Nc2ccc(F)c(C(F)(F)F)c2)cc1`, the melting point lay in the range of 238 to 241 °C.
Compound `CC(=O)N(C)c1c(I)c(NC(=O)CS(=O)(=O)CC(=O)O)c(I)c(C(=O)O)c1I` yielded a melting point above 300 °C.
